# Test results taken from ChEMBL document CHEMBL1144675, “Stereospecific synthesis and bio-activity of novel beta(3)-adrenoceptor agonists and inverse agonists” (Bioorg Med Chem, 2008).
# Calls of active or inactive are those of the source. No cut-off for these calls is given here.
# Tests used:
# [1] = biological target: Beta-2 adrenergic receptor (Homo sapiens) (UniProt P07550); assay: Displacement of [3H]dihydroalprenolol from human adrenergic beta-2 receptor expressed in CHO cells at 10 uM; format: cell-based
# [2] = biological target: T1, Peroxisome proliferator-activated receptor alpha (Mus musculus) (UniProt P23204); assay: Agonist activity at mouse PPARalpha receptor in monkey COS7 cells assessed as activation of CAT reporter gene at 50 uM by transactivation assay relative to Wy,14-643; format: functional, cell-based; conditions: COS-7
# T1 sequence (whole entry): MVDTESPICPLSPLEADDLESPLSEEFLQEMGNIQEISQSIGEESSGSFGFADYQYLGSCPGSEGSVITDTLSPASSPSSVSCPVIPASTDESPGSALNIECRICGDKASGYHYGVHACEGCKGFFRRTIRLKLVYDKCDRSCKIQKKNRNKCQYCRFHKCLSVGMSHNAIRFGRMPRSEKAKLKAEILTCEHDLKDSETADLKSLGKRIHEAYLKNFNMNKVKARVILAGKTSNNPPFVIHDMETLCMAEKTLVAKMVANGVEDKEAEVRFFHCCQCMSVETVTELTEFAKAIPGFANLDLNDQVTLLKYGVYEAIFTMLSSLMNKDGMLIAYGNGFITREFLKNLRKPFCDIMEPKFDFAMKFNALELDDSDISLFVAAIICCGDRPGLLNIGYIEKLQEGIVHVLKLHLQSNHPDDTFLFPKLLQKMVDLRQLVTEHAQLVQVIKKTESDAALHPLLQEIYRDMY
# [3] = biological target: T1, Peroxisome proliferator-activated receptor alpha (Mus musculus); assay: Agonist activity at mouse PPARalpha receptor in monkey COS7 cells assessed as activation of CAT reporter gene at 300 uM by transactivation assay relative to Wy,14-643; format: functional, cell-based; conditions: COS-7
# [4] = biological target: T1, Peroxisome proliferator-activated receptor alpha (Mus musculus); assay: Agonist activity at mouse PPARalpha receptor in monkey COS7 cells assessed as activation of CAT reporter gene at 150 uM by transactivation assay relative to Wy,14-643; format: functional, cell-based; conditions: COS-7
# [5] = biological target: Beta-1 adrenergic receptor (Homo sapiens) (UniProt P08588); assay: Displacement of [3H]dihydroalprenolol from human adrenergic beta-1 receptor expressed in CHO cells at 10 uM; format: cell-based
# [6] = biological target: T2, Beta-3 adrenergic receptor (Homo sapiens, UniProt P13945); assay: Agonist activity at human adrenergic beta-3 receptor expressed in CHO cells assessed as cAMP levels by DELFIA method; format: functional, cell-based
# [7] = biological target: T2, Beta-3 adrenergic receptor
# Description: Agonist activity at human adrenergic beta3 receptor expressed in CHO cells assessed as [3H]cAMP levels by radiolabeled ligand based assay
# [8] = biological target: Beta-3 adrenergic receptor (Rattus norvegicus) (UniProt P26255); assay: Antagonist activity at adrenergic beta-3 receptor in rat proximal colon assessed as colon motility; format: functional, tissue-based
# [9] = biological target: T1, Peroxisome proliferator-activated receptor alpha (Mus musculus); assay: Agonist activity at mouse PPARalpha receptor in monkey COS7 cells assessed as activation of CAT reporter gene at 2 uM by transactivation assay relative to Wy,14-643; format: functional, cell-based; conditions: COS-7
# Chain of Beta-1 adrenergic receptor (Homo sapiens) (P08588 whole entry, looked up): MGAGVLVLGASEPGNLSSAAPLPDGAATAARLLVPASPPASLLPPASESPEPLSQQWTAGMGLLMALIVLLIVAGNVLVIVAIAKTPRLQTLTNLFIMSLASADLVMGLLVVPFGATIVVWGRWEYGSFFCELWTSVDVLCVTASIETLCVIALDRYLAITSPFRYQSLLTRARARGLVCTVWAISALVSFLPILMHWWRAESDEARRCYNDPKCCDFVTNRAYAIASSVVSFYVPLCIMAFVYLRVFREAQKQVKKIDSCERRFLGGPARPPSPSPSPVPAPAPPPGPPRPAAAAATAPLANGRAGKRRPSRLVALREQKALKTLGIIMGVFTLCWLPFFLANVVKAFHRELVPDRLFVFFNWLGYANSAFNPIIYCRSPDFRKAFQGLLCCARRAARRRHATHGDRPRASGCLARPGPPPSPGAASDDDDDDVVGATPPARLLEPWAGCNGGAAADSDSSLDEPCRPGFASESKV
# T2 sequence (P13945 whole entry): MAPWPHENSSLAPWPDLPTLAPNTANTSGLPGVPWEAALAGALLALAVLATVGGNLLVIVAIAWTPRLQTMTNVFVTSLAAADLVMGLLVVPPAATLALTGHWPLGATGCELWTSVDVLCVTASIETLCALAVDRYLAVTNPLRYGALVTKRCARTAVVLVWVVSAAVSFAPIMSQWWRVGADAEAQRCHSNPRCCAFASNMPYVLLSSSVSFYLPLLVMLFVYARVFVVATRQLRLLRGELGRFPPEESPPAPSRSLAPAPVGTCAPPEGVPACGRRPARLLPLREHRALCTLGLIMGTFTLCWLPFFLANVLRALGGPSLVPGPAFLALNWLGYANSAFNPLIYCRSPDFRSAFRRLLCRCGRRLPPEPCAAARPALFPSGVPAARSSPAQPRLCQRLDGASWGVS
# Chain of Beta-2 adrenergic receptor (Homo sapiens) (P07550 whole entry, looked up): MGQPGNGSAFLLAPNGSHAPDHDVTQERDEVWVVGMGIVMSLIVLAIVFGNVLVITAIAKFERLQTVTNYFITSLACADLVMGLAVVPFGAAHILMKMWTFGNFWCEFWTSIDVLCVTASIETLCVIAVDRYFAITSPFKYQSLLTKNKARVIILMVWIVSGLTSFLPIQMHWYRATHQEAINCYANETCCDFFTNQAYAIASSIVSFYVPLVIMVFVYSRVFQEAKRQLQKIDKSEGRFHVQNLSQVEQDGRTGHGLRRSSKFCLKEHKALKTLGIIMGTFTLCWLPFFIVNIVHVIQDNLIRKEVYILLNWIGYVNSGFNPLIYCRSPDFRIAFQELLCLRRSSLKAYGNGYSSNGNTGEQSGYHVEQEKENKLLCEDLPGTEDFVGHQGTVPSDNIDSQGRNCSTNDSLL
# Chain of Beta-3 adrenergic receptor (Rattus norvegicus) (P26255 whole entry): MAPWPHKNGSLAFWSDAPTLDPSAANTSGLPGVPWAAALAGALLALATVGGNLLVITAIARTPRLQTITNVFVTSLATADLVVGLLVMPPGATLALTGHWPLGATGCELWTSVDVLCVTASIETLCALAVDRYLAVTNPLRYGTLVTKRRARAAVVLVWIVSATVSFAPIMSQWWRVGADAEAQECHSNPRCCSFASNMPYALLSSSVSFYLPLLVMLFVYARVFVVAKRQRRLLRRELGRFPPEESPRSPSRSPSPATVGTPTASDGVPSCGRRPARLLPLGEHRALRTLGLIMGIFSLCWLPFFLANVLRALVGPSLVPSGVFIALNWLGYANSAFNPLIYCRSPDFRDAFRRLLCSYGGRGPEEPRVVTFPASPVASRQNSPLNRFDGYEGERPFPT
SMILES,inhibition [1],Activity [2],Activity [3],Activity [4],inhibition [5],EC50 [6],EC50 [7],Activity [8],Activity [9]
CC(C)(Oc1ccc(CCNCC(O)c2ccccc2)cc1)C(=O)O (racemic),24%,2%,1.8%,1.7%,18%,4.9 nM,,,
CNC[C@H](O)c1ccc(O)c(O)c1 [EPINEPHRINE],,,,,,31 nM,49 nM,,
CC(C)(Oc1ccc(CCNC[C@@H](O)c2ccccc2)cc1)C(=O)O,5%,1.7%,2.1%,1.5%,13%,,,,
C[C@H](Oc1ccc(CCNC[C@@H](O)c2ccccc2)cc1)C(=O)O,9%,1%,1.8%,1%,14%,181 nM,,Active,
"C[C@H](Oc1ccc(CCNC[C@H](O)c2ccccc2)cc1)C(=O)O (single isomer, unassigned)",1%,1.6%,1.5%,1.8%,28%,2.7 nM,,,
Cc1cccc(Nc2cc(Cl)nc(SCC(=O)O)n2)c1C,,,,,,,,,100%
CC(C)(Oc1ccc(Cl)cc1)C(=O)O,,,86.5%,,,,,,
CC(Oc1ccc(CCNCC(O)c2ccccc2)cc1)C(=O)O (racemic),24%,1.5%,1.8%,1.9%,37%,3.8 nM,,,
CC(C)(Oc1ccc(CCNC[C@H](O)c2ccccc2)cc1)C(=O)O,1%,1.3%,1.5%,1.5%,8%,,,,
"C[C@@H](Oc1ccc(CCNC[C@@H](O)c2ccccc2)cc1)C(=O)O (single isomer, unassigned)",1%,1.3%,3.6%,2%,10%,136 nM,,Active,
C[C@@H](Oc1ccc(CCNC[C@H](O)c2ccccc2)cc1)C(=O)O,2%,1.1%,2.6%,1.5%,6%,235 nM,,,
CCOC(=O)C(C)(C)Oc1ccc(Cl)cc1,,12.6%,89.9%,11%,,,,,
